Assay results as given in PMC9502374, “Enzymatic and Molecular Characterization of Anti-Leishmania Molecules That Differently Target Leishmania and Mammalian eIF4A Proteins, LieIF4A and eIF4AMus” (Molecules, 2022).
Where “and” joins values, the source holds several entries; their conditions need not be identical. Equal values may be shown once. Read-outs that look alike come from different tables or passages of the source.

Legend:
[1] = system: intramacrophage amastigotes of L. donovani (LV9); parameters: method as in PMID 16949702; conditions: cited from earlier work
[2] = system: THP-1-derived macrophages; test: MTT cytotoxicity assay on macrophages; format: cell-based, human; conditions: MTT, 24 h; read-out: Uninfected THP-1-Derived Macrophages CC50
Experimental: (§1) The human myelomonocytic cell line, THP-1, was ordered from the American Type Culture Collection (ATCC, TIB-202). Cells were maintained in RPMI 1640/Glutamax-I media (Gibco BRL, Bleiswijk, The Netherlands) supplemented with 10% heat-inactivated fetal calf serum (Gibco, Bleiswijk, The Netherlands) plus penicillin G (100 U/mL) and streptomycin ([…]). THP-1 cells were differentiated to macrophages after their treatment with 20 ng/mL phorbol […] (PMA) (Sigma, St. Louis, MO, USA) for 48 h at 37 °C, 5% CO2. The viability of THP-1 mature macrophage-like cells was determined to be >97% by the Trypan blue dye exclusion assay.
(§2) For the cytotoxicity assay, we used the THP-1-derived macrophages (50,000 cells/well) seeded in 96-well plates and treated with serial concentrations of compounds at the same conditions as for the promastigotes for 24 h.
(§3) Mock-treated THP-1-derived macrophages and promastigotes (1% DMSO) were used as controls. After 24 h of incubation, MTT solution was added at 1 mg/mL to each well and incubated at the appropriate cell temperatures for 4 h. Then, 150 μL of DMSO was added to each well to dissolve the blue formazan, and the optical density (OD) was measured at 560 nm with a microplate reader (MULTISCAN, Labsystems, Thermo Fisher Scientific, Ratastie, Finland).
(§4) The promastigotes and THP-1-derived macrophage viabilities were expressed as the percentage of the viable promastigotes or cells in treated conditions relative to the 1% DMSO cultures, as previously described in [7]. The half maximal inhibitory concentration (IC50) and 50% cytotoxic concentrations (CC50) values were calculated for all the tested compounds by interpolation.

[3] = MTT cytotoxicity assay on macrophages; format: cell-based, human; conditions: human
Experimental: as §1, §2, §3, §4

LieIF4A [4] = biological target: T1, LieIF4A (Leishmania infantum, UniProt A4HRK0); conditions: cited from earlier work; for Ki: ATPase kinetics, calculated from data in ref 7; for IC50: read-out: LieIF4A ATPase assay IC50
T1 construct: His6; made in house; host or cells: Escherichia coli Rosetta
T1 sequence (A4HRK0 1-403): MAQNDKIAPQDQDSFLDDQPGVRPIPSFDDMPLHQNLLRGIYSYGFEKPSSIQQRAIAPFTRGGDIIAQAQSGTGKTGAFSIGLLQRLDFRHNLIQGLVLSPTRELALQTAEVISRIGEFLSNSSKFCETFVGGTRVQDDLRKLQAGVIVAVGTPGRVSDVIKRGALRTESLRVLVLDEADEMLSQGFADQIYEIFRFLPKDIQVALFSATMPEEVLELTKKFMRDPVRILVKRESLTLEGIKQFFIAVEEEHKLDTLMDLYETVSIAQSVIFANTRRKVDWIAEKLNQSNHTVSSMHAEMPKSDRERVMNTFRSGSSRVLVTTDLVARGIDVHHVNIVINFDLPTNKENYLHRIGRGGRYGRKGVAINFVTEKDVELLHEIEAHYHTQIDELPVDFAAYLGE

[5] = system: L. infantum promastigotes (LV50); test: MTT viability assay on promastigotes; format: cell-based, Leishmania infantum; conditions: for IC50: Leishmania infantum, stationary phase promastigotes, 24 h
Experimental: The MON1 L. infantum laboratory strain LV50 originating from a visceral leishmaniasis case (Laboratory of Molecular Epidemiology and Experimental Pathology, Institut Pasteur de Tunis) was used to test the effect of the chemical compounds. Promastigote cultures were inoculated in RPMI-1640 media supplemented with 2 mM L-glutamine, 100 U/mL penicillin, 100 U/mL streptomycin and 10% (v/v) heat-inactivated fetal bovine serum at 22 °C. Promastigotes were collected at the beginning of the stationary phase (day 5), counted, centrifuged and seeded at 10^6/mL in 10 mL of complete media.
The effect of the chemical compounds on the viability of L. infantum promastigotes was evaluated by a colorimetric MTT (3-(4,5-dimethylthiazol-2yl)-2,5-diphenyl tetrazolium bromide) 96-well plate assay as previously described in [7]. This test consisted of a reduction of tetrazolium salt to a […] crystal (blue formazan) by the succinate dehydrogenase activity of mitochondria in living cells, which can be quantified by spectrophotometry. Briefly, 90 μL of LV50 promastigotes harvested from the stationary growth phase of 10^6/mL culture were added to a 96-well culture plate with various concentrations of the selected compounds to obtain a final volume of 100 µL, compound concentrations of 1.5–100 μM, and a final concentration of 1% DMSO per well. Plates were incubated at 25 °C for 24 h.
as §3
The promastigotes and THP-1-derived macrophage viabilities were expressed as the percentage of the viable promastigotes or cells in treated conditions relative to the 1% DMSO cultures, as previously described in [7]. […]

eIF4AMus [6] = biological target: T2, eIF4AMus (Mus musculus, UniProt P60843); parameters: method as in PMID 29346371; conditions: ATPase kinetics, calculated from data in ref 7, cited from earlier work
T2 construct: His6; made in house; host or cells: Escherichia coli Rosetta

[7] = system: L. infantum promastigotes (LV50); parameters: method as in PMID 29346371; conditions: cited from earlier work
[8] = system: THP-1-derived macrophages; conditions: cited from earlier work
eIF4AMus [9] = biological target: T2, eIF4AMus; test: RNA-dependent ATPase assay (Malachite green), eIF4AMus; format: biochemical
Experimental: (§5) A colorimetric assay was used to measure the phosphate released during ATP hydrolysis based on Malachite green, as previously described in [8, 9]. Reactions were performed at 37 °C in 96 well microtiter plates in a final volume of 50 μL. The reaction buffer contained 50 mM potassium acetate, 20 mM MES pH 6, 2 mM dithiothreitol (DTT), 0.1 mg/mL BSA and various concentrations of whole yeast RNA (Type XI-C, Sigma-Aldrich, St. Louis, MO, USA). 5 mM and 1 mM magnesium acetate were added to the LieIF4A and eIF4AMus reactions, respectively. Reactions were initiated by adding ATP; when not noted otherwise, the ATP concentration used was 1 mM. Reactions were stopped after various times with ethylenediaminetetraacetic acid (EDTA, final concentration 60 mM). The absorption at 630 nm was converted to phosphate concentration by a reference curve generated from a dilution series of a known phosphate concentration (0.1 mM Pi standard; Innova Biosciences, Cambridge, UK). Reaction velocities were determined by a linear regression fit of the phosphate generated against time. Only the initial linear phases of the curves were used. Velocities were determined for three independent experiments for each reaction condition. The Michaelis –Menten (Km) and the inhibition kinetics (Ki) constants were obtained by nonlinear regression using GraphPad Prism 8 (GraphPad Software).

LieIF4A [10] = biological target: T1, LieIF4A; test: RNA-dependent ATPase assay (Malachite green), LieIF4A; format: biochemical
Experimental: as §5

[11] = system: L. infantum promastigotes; parameters: method as in PMID 21417924; conditions: cited from earlier work
[12] = L. infantum, read-out: Anti-leishmanial activity IC50

T2 sequence (P60843 whole entry): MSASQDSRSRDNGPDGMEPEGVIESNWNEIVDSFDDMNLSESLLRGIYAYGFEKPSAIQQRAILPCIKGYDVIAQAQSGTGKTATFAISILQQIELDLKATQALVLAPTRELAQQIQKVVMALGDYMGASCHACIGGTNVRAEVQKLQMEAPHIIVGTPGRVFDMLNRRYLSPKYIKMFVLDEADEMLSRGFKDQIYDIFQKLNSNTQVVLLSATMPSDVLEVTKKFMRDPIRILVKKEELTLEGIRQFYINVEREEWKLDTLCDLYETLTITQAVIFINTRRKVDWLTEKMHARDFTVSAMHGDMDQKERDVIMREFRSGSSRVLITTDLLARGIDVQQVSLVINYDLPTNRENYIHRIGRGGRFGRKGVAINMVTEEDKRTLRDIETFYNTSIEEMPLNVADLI

## 7-α/β-aminocholesterol
[1]
  IC50: 1.3 µM

## CC(C)CCC[C@@H](C)[C@H]1CC[C@H]2[C@@H]3CC(=O)[C@H]4C[C@@H](O)CC[C@]4(C)[C@H]3CC[C@]12C [6-ketocholestanol]
[2]
  CC50: 76.9 ± 2.1 µM
[3]; THP-1-derived macrophages (PMA-differentiated, uninfected), MTT, 24 h, read-out: Uninfected THP-1-Derived Macrophages CC50
  CC50 at 24 h: 77 µM
LieIF4A [4]
  Ki: 316 ± 80.7 µM
  IC50: > 1000 µM
[5]
  IC50: 37 ± 6.6 µM
eIF4AMus [6]
  Ki: 485 ± 94.5 µM
[7]; [12]
  IC50: 39.1 µM

## CC(C)CCC[C@@H](C)[C@H]1CC[C@H]2[C@@H]3C[C@H](N)[C@H]4C[C@@H](O)CC[C@]4(C)[C@H]3CC[C@]12C [6-α-aminocholestanol]
LieIF4A [4]
  Ki: 19.5 ± 3.27 µM
  IC50: 160 µM
eIF4AMus [6]; read-out: Ki
  Ki: 20.2 µM
[8]
  CC50: 35.2 ± 1.3 µM
[7]; [12]
  IC50: 3.6 µM
[7]; MTT, measured using data in ref 7, read-out: Promastigotes LV50 IC50
  IC50: 3.64 ± 0.1 µM

## CC(C)CCC[C@@H](C)[C@H]1CC[C@H]2[C@@H]3[C@H](N)C=C4C[C@@H](O)CC[C@]4(C)[C@H]3CC[C@]12C [7-α-aminocholesterol]
[3]; Uninfected THP-1-Derived Macrophages CC50
  CC50 at 24 h: 17.5 ± 3.4 µM
[1]
  IC50: 1.31 µM
[5]
  IC50: 2.29 ± 0.4 µM
eIF4AMus [9]; ATPase kinetics, saturating yRNA
  Ki: 80.5 µM
LieIF4A [10]; Ki eIF4AMus / Ki LieIF4A
  Higher affinity (Ki) for LieIF4A than for eIF4AMus: ~ 9.4 fold
LieIF4A [10]; Ki, ATPase kinetics, saturating yRNA
  Ki: 8.6 µM and 8.57 µM

## CC(C)CCC[C@@H](C)[C@H]1CC[C@H]2[C@@H]3[C@@H](CN)C=C4C[C@@H](O)CC[C@]4(C)[C@H]3CC[C@]12C [7-β-aminomethylcholesterol]
[1]
  IC50: 1.3 µM

## Nc1ncnc2c1ncn2[C@@H]1O[C@H](COP(=O)(O)OP(=O)(O)OP(=O)(O)O)[C@@H](O)[C@H]1O [ATP]
LieIF4A [4]; saturating total yeast RNA, control DMSO, no test compound, read-out: Km (ATP hydrolysis)
  Km: 150 ± 20 µM

## CC(C)CCC[C@@H](C)[C@H]1CC[C@H]2[C@@H]3CC=C4C[C@@H](O)CC[C@]4(C)[C@H]3CC[C@]12C [Cholesterol]
[5]; 24 h exposure
  Effect on promastigotes viability: no effect
eIF4AMus [9]; 300 µM compound
  Effect on ATPase kinetics: no effect
LieIF4A [10]; 300 µM compound
  Effect on ATPase kinetics: no effect

## COc1ccc([C@@]23Oc4cc(OC)cc(OC)c4[C@]2(O)[C@H](O)[C@H](C(=O)N(C)C)[C@H]3c2ccccc2)cc1 [Rocaglamide A]
[11]
  EC50: 16.5 µM
eIF4AMus [9]; 50 µM rocaglamide A vs no compound, 55 ng/µL yRNA
  Increase of ATPase activity: 6.2 fold
eIF4AMus [9]; 50 µM rocaglamide A, 55 ng/µL yRNA
  Relative activity (to maximum velocity of eIF4AMus without rocaglamide A): 2.65 ± 0.03
eIF4AMus [9]; 50 µM rocaglamide A, 55 ng/µL yRNA vs 340 ng/µL yRNA
  ATPase activity with compound relative to saturating RNA without compound (more): ~2.7 fold
eIF4AMus [9]; 50 µM rocaglamide A, 55 ng/µL yRNA, 1 mM ATP, 1200 nM protein, 10% DMSO
  V (ATPase reaction velocity): 2.55 ± 0.03 µM/min
LieIF4A [10]; 50 µM rocaglamide A vs no compound, 1 ng/µL yRNA
  Increase of ATPase activity: 1.7 fold
LieIF4A [10]; 50 µM rocaglamide A, 1 ng/µL yRNA
  Relative activity (to maximum velocity of eIF4AMus without rocaglamide A): 0.80 ± 0.07
LieIF4A [10]; 50 µM rocaglamide A, 1 ng/µL yRNA vs 340 ng/µL yRNA
  ATPase activity with compound relative to saturating RNA without compound (less): 2.3 fold
LieIF4A [10]; 50 µM rocaglamide A, 1 ng/µL yRNA, 1 mM ATP, 820 nM protein, 10% DMSO
  V (ATPase reaction velocity): 0.77 ± 0.07 µM/min
